# From ChEMBL document CHEMBL3102738, “Synthesis and biological evaluation of nitric oxide-donating analogues of sulindac for prostate cancer treatment” (Bioorg Med Chem, 2014)
# The source made the active and inactive calls. No cut-off for these calls is given here.
# Key:
# PC-3 [1] = experiment: Cytotoxicity against human PC3 cells at 0.05 to 0.5 uM after 72 hrs by crystal violet method
# PC-3 [2] = experiment: Cytotoxicity against human PC3 cells assessed as cell viability at 50 uM after 24 hrs by crystal violet method (reference value: 99.09 +/- 9.87%); assay type: functional; settings: PC-3, 24 h, read-out: Activity
# PC-3 [3] = experiment: Cytotoxicity against human PC3 cells assessed as cell viability at 50 uM after 48 hrs by crystal violet method (reference value: 100.87 +/- 4.87%); assay type: functional; settings: PC-3, 48 h, read-out: Activity
# PC-3 [4] = experiment: Cytotoxicity against human PC3 cells assessed as cell viability at 50 uM after 72 hrs by crystal violet method (reference value: 95.69 +/- 7.66%); assay type: functional; settings: PC-3, 72 h, read-out: Activity
SMILES,Activity (PC-3 [1]),viability at 50 µM (PC-3 [2]) [%],viability at 50 µM (PC-3 [3]) [%],viability at 50 µM (PC-3 [4]) [%]
CSc1ccc(/C=C2/C(C)=C(CC(=O)NCCNC(=O)/N=c3/c[n+](-c4ccccc4)[n-]o3)c3cc(F)ccc32)cc1,inactive,66.5,34.7,21.3
CC1=C(CC(=O)OCCCCCCOc2no[n+]([O-])c2S(=O)(=O)c2ccccc2)c2cc(F)ccc2/C1=C\c1ccc(S(C)(=O)=O)cc1,–,42.4,24.2,15.4
CC1=C(CC(=O)NCCNC(=O)/N=c2/c[n+](-c3ccccc3)[n-]o2)c2cc(F)ccc2/C1=C\c1ccc([S+](C)[O-])cc1 (stereo not drawn),inactive,74,46.7,36.3
CC1=C(CC(=O)Oc2cccc(Oc3no[n+]([O-])c3S(=O)(=O)c3ccccc3)c2)c2cc(F)ccc2/C1=C\c1ccc([S+](C)[O-])cc1 (stereo not drawn),–,74,67.7,66.3
CC1=C(CC(=O)OCCCCO)c2cc(F)ccc2/C1=C\c1ccc(S(C)(=O)=O)cc1,–,87.4,81.5,86.6
CSc1ccc(/C=C2/C(C)=C(CC(=O)OCCO[N+](=O)[O-])c3cc(F)ccc32)cc1,–,95.6,119,91.2
CC1=C(CC(=O)O)c2cc(F)ccc2/C1=C\c1ccc(S(C)(=O)=O)cc1 [EXISULIND],–,87.8,91,83.5
CSc1ccc(/C=C2/C(C)=C(CC(=O)OCCOCCOc3no[n+]([O-])c3S(=O)(=O)c3ccccc3)c3cc(F)ccc32)cc1,–,55.2,71,50.8
CC1=C(CC(=O)/N=c2\c[n+](-c3ccccc3)[n-]o2)c2cc(F)ccc2/C1=C\c1ccc(S(C)(=O)=O)cc1,–,108,74.5,81.1
CC1=C(CC(=O)NCCOC(=O)/N=c2/c[n+](-c3ccccc3)[n-]o2)c2cc(F)ccc2/C1=C\c1ccc([S+](C)[O-])cc1 (stereo not drawn),inactive,76.7,46.4,41.4
CSc1ccc(/C=C2/C(C)=C(CC(=O)OCC#CCOc3no[n+]([O-])c3S(=O)(=O)c3ccccc3)c3cc(F)ccc32)cc1,–,25.4,20.8,14.9
CC1=C(CC(=O)OCCO[N+](=O)[O-])c2cc(F)ccc2/C1=C\c1ccc([S+](C)[O-])cc1 (stereo not drawn),–,73,54.9,35.5
CC1=C(CC(=O)OCCOc2no[n+]([O-])c2S(=O)(=O)c2ccccc2)c2cc(F)ccc2/C1=C\c1ccc(S(C)(=O)=O)cc1,–,0,0,0
CSc1ccc(/C=C2/C(C)=C(CC(=O)OCCCCO[N+](=O)[O-])c3cc(F)ccc32)cc1,–,49.4,28.4,17.1
CC1=C(CC(=O)OCC(CO[N+](=O)[O-])(CO[N+](=O)[O-])CO[N+](=O)[O-])c2cc(F)ccc2/C1=C\c1ccc(S(C)(=O)=O)cc1,–,101,84.5,95.3
CC1=C(CC(=O)OCCCCO[N+](=O)[O-])c2cc(F)ccc2/C1=C\c1ccc([S+](C)[O-])cc1 (stereo not drawn),–,58.8,35.5,24.5
CSc1ccc(/C=C2/C(C)=C(CC(=O)Oc3cccc(Oc4no[n+]([O-])c4S(=O)(=O)c4ccccc4)c3)c3cc(F)ccc32)cc1,–,81.1,88.3,80.7
CC1=C(CC(=O)OC/C=C\COc2no[n+]([O-])c2S(=O)(=O)c2ccccc2)c2cc(F)ccc2/C1=C\c1ccc(S(C)(=O)=O)cc1,–,0,0,0
CSc1ccc(/C=C2/C(C)=C(CC(=O)OCCCCCCOc3no[n+]([O-])c3S(=O)(=O)c3ccccc3)c3cc(F)ccc32)cc1,–,57.2,41.7,29.2
CC1=C(CC(=O)OCc2cccc(Oc3no[n+]([O-])c3S(=O)(=O)c3ccccc3)c2)c2cc(F)ccc2/C1=C\c1ccc(S(C)(=O)=O)cc1,–,88.3,67.7,63.6
CC1=C(CC(=O)OCCCCOc2no[n+]([O-])c2S(=O)(=O)c2ccccc2)c2cc(F)ccc2/C1=C\c1ccc(S(C)(=O)=O)cc1,–,67.9,49.9,38.8
CC1=C(CC(=O)OCc2cccc(Oc3no[n+]([O-])c3S(=O)(=O)c3ccccc3)c2)c2cc(F)ccc2/C1=C\c1ccc([S+](C)[O-])cc1 (stereo not drawn),–,71.8,56.2,51.9
CC1=C(CC(=O)OCC(CO[N+](=O)[O-])(CO[N+](=O)[O-])CO[N+](=O)[O-])c2cc(F)ccc2/C1=C\c1ccc([S+](C)[O-])cc1 (stereo not drawn),–,86,79.8,89.6

SMILES,Activity (PC-3 [1]),viability at 50 µM (PC-3 [2]) [%],viability at 50 µM (PC-3 [3]) [%],viability at 50 µM (PC-3 [4]) [%]
CSc1ccc(/C=C2/C(C)=C(CC(=O)/N=c3\c[n+](-c4ccccc4)[n-]o3)c3cc(F)ccc32)cc1,–,89,90.8,77
CSc1ccc(/C=C2/C(C)=C(CC(=O)OCCCCO)c3cc(F)ccc32)cc1,–,98.2,80.5,84
CSc1ccc(/C=C2/C(C)=C(CC(=O)OC(CO[N+](=O)[O-])CO[N+](=O)[O-])c3cc(F)ccc32)cc1,–,91.2,92.3,93.5
CSc1ccc(/C=C2/C(C)=C(CC(=O)OCc3cccc(Oc4no[n+]([O-])c4S(=O)(=O)c4ccccc4)c3)c3cc(F)ccc32)cc1,–,102,79.7,82.7
CC1=C(CC(=O)OCC#CCOc2no[n+]([O-])c2S(=O)(=O)c2ccccc2)c2cc(F)ccc2/C1=C\c1ccc([S+](C)[O-])cc1 (stereo not drawn),–,0,0,0
CC1=C(CC(=O)OCCCOc2no[n+]([O-])c2S(=O)(=O)c2ccccc2)c2cc(F)ccc2/C1=C\c1ccc(S(C)(=O)=O)cc1,–,0,0,0
CC1=C(CC(=O)OC(CO[N+](=O)[O-])CO[N+](=O)[O-])c2cc(F)ccc2/C1=C\c1ccc([S+](C)[O-])cc1 (stereo not drawn),–,46.5,44.9,30.2
CSc1ccc(/C=C2/C(C)=C(CC(=O)OCCCCCCO[N+](=O)[O-])c3cc(F)ccc32)cc1,–,92.4,85.1,104
CC1=C(CC(=O)OCC#CCOc2no[n+]([O-])c2S(=O)(=O)c2ccccc2)c2cc(F)ccc2/C1=C\c1ccc(S(C)(=O)=O)cc1,–,36.5,38,27.3
CC1=C(CC(=O)OCCOCCOc2no[n+]([O-])c2S(=O)(=O)c2ccccc2)c2cc(F)ccc2/C1=C\c1ccc(S(C)(=O)=O)cc1,–,0,0,0
CC1=C(CC(=O)OCCCCO[N+](=O)[O-])c2cc(F)ccc2/C1=C\c1ccc(S(C)(=O)=O)cc1,–,68.7,52.9,54.7
CC1=C(CC(=O)OC(CO[N+](=O)[O-])CO[N+](=O)[O-])c2cc(F)ccc2/C1=C\c1ccc(S(C)(=O)=O)cc1,–,88,89,89.4
CC1=C(CC(=O)OCCCOc2no[n+]([O-])c2S(=O)(=O)c2ccccc2)c2cc(F)ccc2/C1=C\c1ccc([S+](C)[O-])cc1 (stereo not drawn),–,0,0,0
CC1=C(CC(=O)OCCCCCCO[N+](=O)[O-])c2cc(F)ccc2/C1=C\c1ccc([S+](C)[O-])cc1 (stereo not drawn),–,105,72.7,88.1
CC1=C(CC(=O)OCCCCOc2no[n+]([O-])c2S(=O)(=O)c2ccccc2)c2cc(F)ccc2/C1=C\c1ccc([S+](C)[O-])cc1 (stereo not drawn),–,32.3,21.8,16.5
CSc1ccc(/C=C2/C(C)=C(CC(=O)OC/C=C\COc3no[n+]([O-])c3S(=O)(=O)c3ccccc3)c3cc(F)ccc32)cc1,–,30.6,31.4,20.6
CC1=C(CC(=O)Oc2cccc(Oc3no[n+]([O-])c3S(=O)(=O)c3ccccc3)c2)c2cc(F)ccc2/C1=C\c1ccc(S(C)(=O)=O)cc1,–,0,0,0
CSc1ccc(/C=C2/C(C)=C(CC(=O)OCC(CO[N+](=O)[O-])(CO[N+](=O)[O-])CO[N+](=O)[O-])c3cc(F)ccc32)cc1,–,88.3,101,110
CC1=C(CC(=O)OCCCCO)c2cc(F)ccc2/C1=C\c1ccc([S+](C)[O-])cc1 (stereo not drawn),–,96.6,76.9,96.5
CC1=C(CC(=O)OCCO[N+](=O)[O-])c2cc(F)ccc2/C1=C\c1ccc(S(C)(=O)=O)cc1,–,84.4,96.2,84.4
CSc1ccc(/C=C2/C(C)=C(CC(=O)O)c3cc(F)ccc32)cc1 [SULINDAC SULFIDE],–,99.2,93.7,105
CC1=C(CC(=O)OCCCCCCO[N+](=O)[O-])c2cc(F)ccc2/C1=C\c1ccc(S(C)(=O)=O)cc1,–,93.3,59,64
